Assay results taken from patent publication US12172946B2, “Compound containing diphenylmethane structure and use thereof” (GUANGZHOU TROJAN PHARMATEC LTD., priority 2019, dated 2024).

Assay: solubility of the compound in common solvents
Format: physicochemical
Conditions: 25-30° C.; for solubility in DMF: N,N-dimethylformamide; for solubility in i-PrOAc: isopropyl acetate; for solubility in MTBE: methyl tert-butyl ether
Protocol: The solubility of the compound of the present invention in common solvents was investigated (25-30° C.), and the results are shown in Table 1. It can be seen from Table 1 that the compound of the present invention has good solubility in all of heptane, isopropyl acetate (i-PrOAc), methyl tert-butyl ether (MTBE) and N,N-dimethylformamide (DMF), and particularly, the solubility in N,N-dimethylformamide is much higher than Comparative Examples.

SMILES	solubility in DMSO	solubility in MeOH	solubility in DMF	solubility in Heptane	solubility in i-PrOAc	solubility in MTBE
CC(CCC(C(=O)N(CCOCCOc1ccc(C(N)c2ccc(OCCOCCN(Cc3ccccc3)C(=O)C(CCC(C)CC(C)(C)C)C(C)CC(C)(C)C)cc2)cc1)Cc1ccccc1)C(C)CC(C)(C)C)CC(C)(C)C (stereo not drawn) [DPA-020]	<5%	<5%	>100%	>100%	>100%	>100%
CCCCCCCCCCCCOc1cc(C(=O)NCCOCCOc2ccc(C(N)c3ccccc3)cc2)cc(OCCCCCCCCCCCC)c1OCCCCCCCCCCCC (stereo not drawn) [DPA-023, 4-(2-(2-(3,4,5-tri(n-dodecyloxy)-benzamido)-ethoxy)-ethoxy)-benzhydrylamine]	<5%	<5%	>30%	>50%	>50%	>50%
CCCCCCCCCCCCCOc1cc(C(=O)N(C)CCOc2ccc(C(N)c3ccccc3)cc2)cc(OCCCCCCCCCCCCC)c1OCCCCCCCCCCCCC (stereo not drawn) [DPA-026, 4-(2-(N′-methy-3,4,5-tri(isomeric tridecyloxy)-benzamido)-ethoxy)-benzhydrylamine]	<1%	<1%	>100%	>50%	>100%	>100%
CCCCCCCCCCCCCOc1ccc(CN(CCOCCOc2ccc(C(N)c3ccccc3)cc2)C(C)=O)cc1OCCCCCCCCCCCCC (stereo not drawn) [DPA-027]	<1%	<1%	>75%	>50%	>75%	>75%
CCCCCCCCCCCCCOc1ccc(CN(CCOCCOc2ccc(C(N)c3ccccc3)cc2)C(=O)CC(C)CC(C)(C)C)cc1OCCCCCCCCCCCCC (stereo not drawn) [DPA-028]	<1%	<1%	>100%	>100%	>100%	>100%
CCCCCCCCCCCCCOc1ccc(CN(CCOCCOc2ccc(C(N)c3ccccc3)cc2)C(=O)c2cc(OCCCCCCCCC)c(OCCCCCCCCC)c(OCCCCCCCCC)c2)cc1OCCCCCCCCCCCCC (stereo not drawn) [DPA-029]	<1%	<1%	>100%	>100%	>100%	>100%
CCCCCCCCCCCCCOc1ccc(CN(CC(=O)NCCOCCOc2ccc(C(N)c3ccccc3)cc2)C(=O)CC(C)CC(C)(C)C)cc1OCCCCCCCCCCCCC (stereo not drawn) [DPA-030, 4-(2-(2-(2-(N″-3,4-di(isomeric tridecyloxy)-benzyl)-isononanoamido)-acetamido)-ethoxy)-ethoxy-benzhydrylamine]	<1%	<1%	>40%	>40%	>40%	>40%
CCCCCCCCCCCCCOc1ccc(CN(CC(=O)NCCOCCOc2ccc(C(N)c3ccccc3)cc2)C(=O)c2cc(OCCCCCCCCC)c(OCCCCCCCCC)c(OCCCCCCCCC)c2)cc1OCCCCCCCCCCCCC (stereo not drawn) [DPA-031, 4-(2-(2-(2-(N″-3,4-di(isomeric tridecyloxy)-benzyl)-3,4,5-tri(isononyloxy)-benzamido)-acetamido)-ethoxy)-ethoxy-benzhydrylamine]	<1%	<1%	>100%	>50%	>100%	>100%
CCCCCCCCCCCCCOc1cc(C(=O)NCCOCCOc2ccc(C(O)(c3ccccc3)c3ccccc3)cc2)cc(OCCCCCCCCCCCCC)c1OCCCCCCCCCCCCC [DPA-032]	<1%	<1%	>40%	>10%	>10%	>10%
CCCCCCCCCCCCCOc1cc(C(=O)NCCOCCOc2ccc(C(O)(c3ccccc3)c3ccccc3Cl)cc2)cc(OCCCCCCCCCCCCC)c1OCCCCCCCCCCCCC (stereo not drawn) [DPA-033]	<1%	<1%	>40%	>30%	>50%	>50%
CCCCCCCCCCCCCOc1cc(C(=O)NCCOCCOc2ccc(C(O)(c3ccccc3)c3ccc(Cl)cc3)cc2)cc(OCCCCCCCCCCCCC)c1OCCCCCCCCCCCCC (stereo not drawn) [DPA-034]	<1%	<1%	>40%	>30%	>50%	>50%
CC(C)CCCC(C)CCCC(C)CCCC(C)CCOc1ccc(C(N)c2ccc(OCCC(C)CCCC(C)CCCC(C)CCCC(C)C)cc2)cc1 (stereo not drawn) [REF-001, 4,4′-di(dihydrophytanyloxy)-benzhydrylamine, reference compound]	<1%	<1%	>0.1%	>50%	>100%	>100%
CC(C)CCCC(C)CCCC(C)CCCC(C)CCOc1cc(COc2ccc(C(N)c3ccccc3)cc2)cc(OCCC(C)CCCC(C)CCCC(C)CCCC(C)C)c1OCCC(C)CCCC(C)CCCC(C)CCCC(C)C (stereo not drawn) [REF-002, reference compound]	<1%	<1%	>0.1%	>100%	>100%	>100%
